# Assay results reported in US20140363845A1, “CHOLESTEROL-BASED MEDIA SUPPLEMENTS FOR CELL CULTURE” (Biogen Idec MA Inc., priority 2011, published 2014).
# Assays:
# [1] = medium hold study: cholesterol adsorption in disposable WAVE Bioreactor bag; type: physicochemical; conditions: medium with 2.5 mg/L cholesterol (1 ml GCLC/liter), after 22 hours of incubation in 2 L WAVE Bioreactor bag
# Description: (§1) The rate of cholesterol depletion from the culture medium in single-use disposable bioreactor bags was determined. A medium hold study was performed in which 1.4 L of fresh pre-warmed culture medium containing 2.5 mg/L cholesterol (1 ml GCLC/liter medium) was added into a 2 L WAVE BIOREACTOR™ bag. The bag was then incubated under standard culture conditions, and 200 ml medium aliquots were aseptically removed from the bag at 15 min, 4 h, 7.5 h and 22 h incubation times. The medium aliquots at each time point were analyzed for cholesterol concentration (FIG. 1) and used to inoculate shake flask cultures seeded at 4×10^5 cells/ml. Shake-flask cultures were passaged for three days under standard conditions. A shake-flask control culture (no prior exposure to WAVE Bioreactor™ bag) containing 2.5 mg/L cholesterol (1 ml GCLC per liter medium) was seeded in parallel. Viable cell density and viability were measured every 24 hours (FIG. 2).
# (§2) Viable cell density was determined using a Cedex Automated Cell Culture Analyzer (Roche Innovatis AG). pH and pCO2 were measured off-line using a BioProfile pHOx analyzer (Nova Biomedical). Cholesterol concentration was measured using GC analysis by Invitrogen Medium Analytical Services.
# [2] = tested on: NS0 cells; assay: shake flask cell growth in medium held in WAVE Bioreactor bag; design: species or system murine; conditions: based on medium hold study and shake flask growth and viability data
# Description: as §1
# A cholesterol-dependent NS0 cell line expressing recombinant antibody was used in the study. The culture medium used was a chemically defined medium formulation. […]
# as §2
# [3] = tested on: NS0 cells; assay: cholesterol dosing in high cell density pseudo-perfusion shake flask culture; type: cell-based, murine; conditions: seed density 8×10^6 cells/ml
# Description: FIG. 5A and FIG. 5B are graphs of a cholesterol dosing study in high cell density cell culture generated using pseudo-perfusion mode. […] Pseudo-perfusion cultures were established in shake flasks using growth medium supplement with GCLC at the following concentrations: 2.5 mg/L (▪), 7.5 mg/L (▴), 10.0 mg/L (0) to 12.5 mg/L (∘). Full volume medium exchanges were carried out on a daily basis. […] There was full volume exchange of medium in the shake flasks on a daily basis. The initial seed density was 8×10^6 cells/ml, and one volume of fresh growth medium was exchanged daily starting on day 1 post inoculation.
# [4] = tested on: NS0 cells; conditions: ethanol dose study
# Description: Cells were suspended in fresh medium containing increased amount of GCLC at concentrations of 5 mg/L and 7.5 mg/L and then incubated for 3 days in 2 L bags under standard cell culture conditions.
cholesterol concentration in the medium [1],Structure (SMILES),cholesterol concentration in the medium to be maintained to support cell growth [2],"support of cell growth ([3]; 2.5 mg total cholesterol/L, daily full volume medium exchange)",cholesterol concentration required to support growth ([3]; high cell density pseudo-perfusion culture),ethanol concentration at which cell growth was not inhibited [4]
below detectable limits,CC(C)CCC[C@@H](C)[C@H]1CC[C@H]2[C@@H]3CC=C4C[C@@H](O)CC[C@]4(C)[C@H]3CC[C@]12C [cholesterol],above 1.0 mg/L,insufficient to support growth,> 7.5 mg/L,–
–,CCO [ethanol],–,–,–,below 2%
